Where “and” joins values, the source holds several entries; their conditions need not be identical. Equal entries are not always repeated.
Columns and labels:
acetyl-CoA carboxylase = conditions: high doses, i.e. 0.15% of diet; cited from earlier work
PC12 cells = experiment: Neurite differentiation of PC12 cells; assay type: cell-based; conditions: for % Cells Bearing Neurites / Average length of neurites: 4 days, mean ±SEM
Experimental: To further study the influence of TOFA on the nervous system, we tested the effect of TOFA on the differentiation of PC12 cells. PC12 cells were plated at a density of approximately 100-200/mm^2 on collagen coated plates or dishes in RPMI medium supplemented with 10% horse serum, 5% fetal calf serum, […] streptomycin, 50 U/mL penicillin in a water saturated atmosphere of 95% air and 5% CO2, at 37° C. overnight. Medium was replaced with fresh RPMI containing 1.5% serum, 100 ng/mL NGF and the indicated concentration of TOFA or an equivalent volume of vehicle (DMSO) giving a final concentration of 0.1% DMSO.
At different time points during the treatment, cells were photographed or fixed with 10% formalin. Morphology was examined after four days of treatment with TOFA or vehicle (DMSO). The number of cells beating neurites and average length of neurites were determined with the aid of the Bioquant imaging system. […] However, as depicted in Table 6 below, NGF alone induced a 15% increase in the number of cells bearing neurites and these outgrowths reached a mean length of 20 μm. Treatment with NGF and TOFA increased the percentage of cells beating neurites to 78%. Maximal neurite generation is observed at a concentration of 10 μM TOFA.
Cells were treated with vehicle (0.1% DMSO) or various concentrations of TOFA in the presence of 100 ng/mL NGF for 4 days, and then fixed with 10% formalin. At least eighty cells from eight wells were analyzed in each group. The results are shown as the mean ±SEM. ^a p<0.01, versus vehicle by Dunnetts test.

GR/NER chimeric receptor [1] = experiment: Activation of GR/NER in CV1 cells (luciferase)
Experimental: The ligand dependent transcription assays were performed as described in Example 4, using CV1 cells in place of COS cells. The transfected CV1 cells were treated with dopamine, TOFA, or with a combination of TOFA and dopamine at the indicated concentrations and tested for luciferase activity.
CV1 cells were co-transfected with the MMTV-Luciferase reporter gene (pJA358) and the GR/NER chimeric receptor as described in Example 4. The cells were treated with increasing amount of the dopamine D1 receptor antagonist SCH 23390 with or without 50 μM […] dopamine.

[2] = test system: Muscarinic receptor agonist (Pilocarpine) induced catalepsy; experiment: Pilocarpine induced catalepsy (Bar method); assay type: in vivo, rat; conditions: TOFA 0.4 mg/kg S.C. pretreatment
Experimental: (§1) Catalepsy was determined by a modification of the Bar method (Undie and Friedman, 1988). A steel bar, 1.1 cm in diameter and 50 cm long, was suspended at a height of 10 cm above the working surface. Three sides of the bench around the bar were walled off with brown cardboard, and the linings on the bench surface were selected to be of the same color with the cardboard walls. The animal's hind limbs were freely placed on the bench, the fail laid out to the back, and the forelimbs placed over the bar. The length of time a rat stayed up on the bar was noted up to a preset cut-off point of 120 s. The time was counted off upon observing any of the following actions: (1) the animal came off, placing its two forepaws on the bench, (2) the animal climbed onto or over the bar with both hind limbs, (3) the animal initiated locomotion along or around the bar. Subsequently, time readings were translated into scores by awarding a score of 1 for each successfully completed 5 s on the bar. For each observation time, catalepsy scores were averaged for all the animals in a group to give the Mean Score of the group at that observation time. Further, the scores for each animal at all the observation times were added to give the total score for that animal. The mean of this last group of numbers was called the Mean Total Score of the group.
(§2) Catalepsy scores were analyzed by computer in accordance with the statistical procedures outlined by Winer, B. J.: Statistical principles in experimental design. McGraw-Hill, New York, pp. 10-428, 1971. Generally, for a given set of comparisons, observations were subjected to an appropriate analysis of variance followed by two-tailed Dunnett or Student's t-tests to detect differences between treatment groups.
Rats were pretreated with 0.4 mg/kg TOFA or with carrier (S.C.). Twenty-four hours later, the rats were challenged with 16 mg/kg Pilocarpine, an agonist of the muscarinic cholinergic receptor, and the duration of catalepsy was monitored as described in Example 10.

human NUCI receptor = target: T1, human NUCI receptor (Homo sapiens, UniProt Q03181); experiment: Transcription assay, native NUC-I receptor co-transfected with MMTV-luciferase reporter
T1 sequence (Q03181 1-441): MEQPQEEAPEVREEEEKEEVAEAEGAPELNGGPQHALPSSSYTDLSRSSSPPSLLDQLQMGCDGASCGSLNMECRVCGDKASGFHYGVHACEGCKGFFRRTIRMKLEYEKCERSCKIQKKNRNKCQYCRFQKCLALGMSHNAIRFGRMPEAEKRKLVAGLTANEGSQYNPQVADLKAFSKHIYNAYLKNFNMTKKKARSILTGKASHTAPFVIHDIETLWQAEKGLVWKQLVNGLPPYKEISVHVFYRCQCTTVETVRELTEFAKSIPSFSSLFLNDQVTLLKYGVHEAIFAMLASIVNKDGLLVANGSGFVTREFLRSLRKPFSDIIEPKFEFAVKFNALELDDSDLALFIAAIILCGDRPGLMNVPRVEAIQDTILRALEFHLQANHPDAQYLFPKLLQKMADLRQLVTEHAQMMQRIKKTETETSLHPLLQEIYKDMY
Experimental: The reporter gene was the plasmid pJA358 in which the expression of firefly luciferase is regulated by two tandem repeats of the glucocorticoid hormone response element (GRE) linked to the MMTV promoter (Boie et al., 1993).
Transient transfection of COS and CV1 cells was performed as described (Schmidt 1992). Cells were plated (1.5×10^5 in 1 mL) into 12 well dishes in phenol red-free medium supplemented with activated charcoal treated fetal calf serum. The next day 0.12 mL of DNA 10 μg/ml (5 μg receptor DNA and 5 μg reporter plasmid), as a calcium phosphate precipitate, was added to the cells. Ligands were added to the cells 30 minutes after transfection. The next day (18 hours), the cells were washed and fresh ligands added. Twenty-four hours later, cell extracts were prepared and assayed for luciferase enzyme activity using the luciferase assay system (Promega Madison, Wis.). Each transfection was performed in triplicate and the luciferase activity of each sample measured in duplicate using the AutoClinilumat (Berthold Nashua, N.H.).
The transfected cells were treated with TOFA at 2 μM, 10 μM, 20 μM, and 50 μM and oleic acid at 50 μM, and 300 μM.

[3] = test system: Dopamine D1 receptor antagonist (SCH 23390) induced catalepsy; experiment: SCH 23390 induced catalepsy (Bar method); assay type: in vivo, rat; conditions: for Catalepsy Duration: TOFA 0.4 mg/kg S.C. pretreatment
Experimental: Rats were pretreated with 0.4 mg/kg TOFA or with carrier (S.C.). Twenty-four hours later, the rats were challenged with 0.5 mg/kg SCH23390, a Dopamine D1 antagonist, and the duration of catalepsy was monitored.
as §1, §2

GR/NER chimeric receptor [4] = experiment: Activation of GR/NER in COS-7 cells (luciferase); conditions: 1440 min
Experimental: The ligand dependent transcription assays were performed as described in Example 4. The transfected COS cells were treated with dopamine, TOFA, or with the combination of TOFA and dopamine at the indicated concentrations and tested for luciferase activity.

[5] = TOFA 10 μM with dopamine 100 μM
[6] = TOFA 100 μM with dopamine 100 μM
[7] = read-out: Fold of stimulation NUC-I

SMILES: CCCCCCCCCCCCCCOc1ccc(C(=O)O)o1 [TOFA, 5-(tetradecyloxy)-2-furan carboxylic acid]
- Fatty acid synthesis in vivo (acetyl-CoA carboxylase): inhibit fatty acid synthesis
- % Cells Bearing Neurites (PC12 cells; 0.1 μM TOFA with 100 ng/mL NGF): 14.27 ± 3.51%
- Average length of neurites (PC12 cells; 0.1 μM TOFA with 100 ng/mL NGF): 23.67 ± 2.86 μm
- % Cells Bearing Neurites (PC12 cells; 1.0 μM TOFA with 100 ng/mL NGF): 24.07 ± 3.06%
- Average length of neurites (PC12 cells; 1.0 μM TOFA with 100 ng/mL NGF): 28.63 ± 3.92 μm
- % Cells Bearing Neurites (PC12 cells; 10 μM TOFA with 100 ng/mL NGF): 78% and 78.39 ± 4.89%
- Average length of neurites (PC12 cells; 10 μM TOFA with 100 ng/mL NGF): 32.43 ± 2.38 μm
- Concentration of maximal neurite generation (PC12 cells; with 100 ng/mL NGF): 10 µM
- Fold of stimulation GR/NER (GR/NER chimeric receptor [1]; [5]): 1.40 ± 0.05 fold
- Fold of stimulation GR/NER (GR/NER chimeric receptor [1]; [6]): 1.60 ± 0.07 fold
- Fold of stimulation GR/NER (GR/NER chimeric receptor [1]; TOFA 100 μM, no dopamine): 3.70 ± 0.06 fold
- Catalepsy Duration ([2]; 24 h later 16 mg/kg Pilocarpine): 84.1 ± 9.6 s
- Catalepsy Duration ([2]; no challenge): 0 s
- Expression of MMTV-luciferase reporter after co-transfection of native NUCI (human NUCI receptor): did not stimulate expression
- fold induction at 2 µM (human NUCI receptor; [7]): 0.83 ± 0.12
- fold induction at 10 µM (human NUCI receptor; [7]): 0.94 ± 0.08
- fold induction at 50 µM (human NUCI receptor; [7]): 1.27 ± 0.06
- Catalepsy Duration ([3]; 24 h later 0.5 mg/kg SCH23390): 75 ± 17.8 s
- Catalepsy Duration ([3]; no challenge): 0 s
- Increase of duration of SCH 23390-induced catalepsy by TOFA pretreatment ([3]; TOFA 0.4 mg/kg S.C., 24 h before 0.5 mg/kg SCH23390): at least 25 fold
- Fold of stimulation GR/NER (GR/NER chimeric receptor [4]; [5]): 3.24 ± 0.06 fold
- Fold of stimulation GR/NER (GR/NER chimeric receptor [4]; [6]): 2.85 ± 0.07 fold
- Fold of stimulation GR/NER (GR/NER chimeric receptor [4]; TOFA 100 μM, no dopamine): 3.36 ± 0.04 fold
